Experimental data as given in US20170246190A1, “METHODS AND FORMULATION FOR IMPROVING ORAL AVAILABILITY OF CPT-11 WHILE REDUCING CPT-11 INDUCED GASTROINTESTINAL TOXICITY IN CANCER THERAPY” (Johnpro Biotech Inc., priority 2014, published 2017).
Structures can show the parent of a compound that is named as a salt.

Columns and labels:
NOD/SCID mice [1] = assay: Bloody diarrhea evaluation by daily naked-eye observation; assay type: in vivo; settings: oral CPT-11 50 mg/Kg and/or silychristin 10 mg/Kg
Description: (§1) To inoculate tumor, HT29 cells (1×10^6 cells per injection) were injected subcutaneously to lab animals to generate s.c. tumors on day 1, which were allowed to grow to about 5 mm in diameter. Two sets of experiments were conducted.
(§2) In the first set of experiment, effects of silymarin on the reduction of CPT-11 induced bloody stool were investigated. […] At the end of the experiments, the animals were sacrificed and colon tissues from each animals were stained and used in histological analysis.

E. Coli βG (eβG) = E. Coli βG (eβG) (Escherichia coli, UniProt P05804); assay: Beta-glucuronidase activity with fluorogenic substrate MUG, E. Coli enzyme; assay type: biochemical; settings: FIG. 3A
Sequence of E. Coli βG (eβG) (P05804 whole entry): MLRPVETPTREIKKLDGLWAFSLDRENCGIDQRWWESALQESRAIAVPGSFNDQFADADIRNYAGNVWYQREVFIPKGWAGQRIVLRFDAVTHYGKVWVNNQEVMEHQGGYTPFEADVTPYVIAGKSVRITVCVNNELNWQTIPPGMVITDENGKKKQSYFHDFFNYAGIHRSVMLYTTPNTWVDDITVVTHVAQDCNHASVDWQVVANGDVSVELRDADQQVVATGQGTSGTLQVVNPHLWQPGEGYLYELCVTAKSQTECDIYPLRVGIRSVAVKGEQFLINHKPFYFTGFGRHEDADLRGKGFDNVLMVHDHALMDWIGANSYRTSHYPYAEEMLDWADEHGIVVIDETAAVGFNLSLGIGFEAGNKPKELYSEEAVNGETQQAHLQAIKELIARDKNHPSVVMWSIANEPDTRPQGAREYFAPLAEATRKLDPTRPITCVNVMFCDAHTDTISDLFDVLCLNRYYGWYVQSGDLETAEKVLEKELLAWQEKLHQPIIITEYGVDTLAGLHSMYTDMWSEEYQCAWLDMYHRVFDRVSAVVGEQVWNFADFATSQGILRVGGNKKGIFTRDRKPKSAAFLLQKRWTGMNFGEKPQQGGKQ
Description: (§3) The βG activity in solution was determined with the fluorogenic substrate 4-methylumbellifery β-D-glucuronide (MUG), in which the non-fluorescent MUG would give rise to glucuronic acid and a highly fluorescent product, 4-methylumbelliferone (4-MU), at higher pH, after being converted by βG. The reaction can be quenched by the addition of a basic solution of sodium carbonate, and pH may be adjusted to quantitate the fluorescent signals. […] After 10 minutes, the assays were quenched at 15 second intervals by adding 1.9 ml of the carbonate stopping buffer. The samples were subject to fluorescence measurement, and the data was converted to nmol MUG hydrolyzed as an indication of GUS enzyme activity.
(§4) Silymarin is known to be a mixture of flavonolignans extracted from blessed milk thistle (Silybum marianum). […] Results are illustrated in FIGS. 3A and 3B.

human βG (hβG) = molecular target: T1, human βG (hβG) (Homo sapiens, UniProt P08236); assay: Beta-glucuronidase activity with fluorogenic substrate MUG, human enzyme; assay type: biochemical; settings: 8 μM; FIG. 3B
T1 sequence (P08236 23-651): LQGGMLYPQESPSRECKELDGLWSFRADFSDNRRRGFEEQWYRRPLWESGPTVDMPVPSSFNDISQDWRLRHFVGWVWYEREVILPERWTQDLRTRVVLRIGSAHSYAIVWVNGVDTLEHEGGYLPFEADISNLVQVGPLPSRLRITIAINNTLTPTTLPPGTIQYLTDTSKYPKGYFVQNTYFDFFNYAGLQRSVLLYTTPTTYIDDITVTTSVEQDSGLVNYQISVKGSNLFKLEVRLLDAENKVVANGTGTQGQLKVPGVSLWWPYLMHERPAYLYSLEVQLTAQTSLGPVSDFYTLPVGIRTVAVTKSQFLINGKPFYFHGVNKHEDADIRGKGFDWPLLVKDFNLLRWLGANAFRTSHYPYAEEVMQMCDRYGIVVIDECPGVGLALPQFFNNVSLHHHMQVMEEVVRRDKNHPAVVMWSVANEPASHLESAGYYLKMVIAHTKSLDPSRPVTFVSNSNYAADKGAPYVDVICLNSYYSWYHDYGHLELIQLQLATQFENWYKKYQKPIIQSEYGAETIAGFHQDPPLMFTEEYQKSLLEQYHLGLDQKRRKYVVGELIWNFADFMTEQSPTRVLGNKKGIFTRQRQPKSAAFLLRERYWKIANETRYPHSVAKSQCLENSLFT
Description: as §3, §4

normal cells HEK-293 = assay: Cell viability assay (MTS) on normal cells; assay type: cell-based, human; settings: 100 μM; FIG. 4
Description: Cell line used in the present disclosure were human colon carcinoma cell line HT29, and human embryonic kidney cell line HEK-293. HT29 cells were cultured and maintained in Dulbecco's modified Eagle media (DMEM) supplemented with 10% heat inactivated fetal bovine serum (FBS), 50 units/mL penicillin G, 50 μg/mL streptomycin (pH 7.4), while HEK-293 cells were cultured in complete SFMII growth medium supplemented with 4mM L-glutamine. Both cell lines were maintained in humidified environment comprising 5% CO2/95% air at 37° C.
Cell were cultured at a density of 1.0×10^5 cells/well in 96-well round-bottom plates (Falcon, UK) containing 200 μL of culturing medium. Cells were maintained for two days at 37° C. in a humidified, 5% CO2 atmosphere. The proliferation rate of the cells was determined by MTS assay (CellTiter 96 aqueous one-solution cell proliferation assay; Promega, Wis., USA). Forty microliters of CellTiter 96 aqueous one-solution were added to each well. After incubation for 4hrs, the UV absorbance of the solution was measured at a wavelength of 490 nm. All MTS assays were performed in triplicate.

[2] = Oral availability of CPT-11: blood levels of CPT-11 and SN-38 by HPLC in mice bearing HT29 xenograft tumors; assay type: in vivo, NOD/SCID mice; settings: oral CPT-11 40 mg/Kg alone, 4 hrs after ingestion, FIG. 1A
Description: as §1
In the second set of experiment, oral availability of CPT-11 was evaluated. The animals were randomly assigned to 3 groups, in which animals in group 1 (N=5) were on normal diet; animals in group 2 (N=5) received oral CPT-11 treatment (40 mg/Kg), and animals in group 3 (N=5) received a dose of dose of UDCA (20 mg/Kg) on day 1, an hour later, one dose of CPT-11 (40 mg/Kg) and one dose of silymarin (100 mg/Kg) were given. Blood samples were respectively taken at 1, 4, 8 hrs after the combined treatment of CPT-11 and on days 4, and 8; and the level of SN-38 (i.e., an active metabolite of CPT-11) was measured by HPLC. The body weight (BW) of each animal was measured daily.
The animals bearing xenografted s.c. colon tumors were randomly assigned into 3 groups, in which group 1 received no treatment, group 2 received one dose of oral treatment of CPT-11 (40 mg/Kg), and group 3 received UDCA (20 mg/Kg), CPT-11 (40 mg/Kg) and silymarin (100 mg/Kg) via oral ingestion in accordance with procedures described in the “Materials and methods” section. […]

NOD/SCID mice [3] = assay: Histological analysis (H&E) of colon tissues after oral CPT-11 treatment; assay type: in vivo; settings: oral CPT-11 50 mg/Kg, with or without silychristin 10 mg/Kg; FIG. 2
Description: as §1, §2

blood level of CPT-11 [2]	Structure (SMILES)	number of animals that exhibited bloody stool / bloody diarrhea (NOD/SCID mice [1])	inhibition of eβG activity (E. Coli βG (eβG); 8 μM) [%]	eβG activity (E. Coli βG (eβG); 40 μM)	effect on the activity of hβG (human βG (hβG))	effect on normal cells' activities (viability of HEK-293) (normal cells HEK-293)	colon tissue damage (morphology and integrity of epithelial cells), H&E histology (NOD/SCID mice [3])
–	COc1cc([C@@H]2Oc3c(O)cc([C@H]4Oc5cc(O)cc(O)c5C(=O)[C@@H]4O)cc3[C@H]2CO)ccc1O [silychristin]	none	~80	negligible level	without affecting	did not adversely affect	–
undetectable level	CCc1c2c(nc3ccc(OC(=O)N4CCC(N5CCCCC5)CC4)cc13)-c1cc3c(c(=O)n1C2)COC(=O)[C@]3(O)CC [CPT-11, Irinotecan hydrochloride]	4 animals	–	–	–	–	severe damage
